Measurements from patent US20250346605A1, “NEW DERIVATIVES FOR TREATING TRPM3 MEDIATED DISORDERS” (Katholieke Universiteit Leuven, priority 2022, published 2025).

These compounds were tested against T1, mouse TRPM3α2 (mTRPM3) ion channel (Mus musculus, UniProt J9SQF3) (assay: TRPM3 ion channel driven Ca2+ uptake (Fluo-4 AM assay), PS-stimulated overexpressing HEK293 cells). Settings: flip-in HEK293 overexpressing TRPM3, stimulated with Pregnenolone sulfate (PS) 50 μM, activity ranges A, B, C.
T1 construct: expressed in transfected cells; host or cells: Flp-In HEK293
T1 sequence (J9SQF3 1-1709 isoform J9SQF3-12): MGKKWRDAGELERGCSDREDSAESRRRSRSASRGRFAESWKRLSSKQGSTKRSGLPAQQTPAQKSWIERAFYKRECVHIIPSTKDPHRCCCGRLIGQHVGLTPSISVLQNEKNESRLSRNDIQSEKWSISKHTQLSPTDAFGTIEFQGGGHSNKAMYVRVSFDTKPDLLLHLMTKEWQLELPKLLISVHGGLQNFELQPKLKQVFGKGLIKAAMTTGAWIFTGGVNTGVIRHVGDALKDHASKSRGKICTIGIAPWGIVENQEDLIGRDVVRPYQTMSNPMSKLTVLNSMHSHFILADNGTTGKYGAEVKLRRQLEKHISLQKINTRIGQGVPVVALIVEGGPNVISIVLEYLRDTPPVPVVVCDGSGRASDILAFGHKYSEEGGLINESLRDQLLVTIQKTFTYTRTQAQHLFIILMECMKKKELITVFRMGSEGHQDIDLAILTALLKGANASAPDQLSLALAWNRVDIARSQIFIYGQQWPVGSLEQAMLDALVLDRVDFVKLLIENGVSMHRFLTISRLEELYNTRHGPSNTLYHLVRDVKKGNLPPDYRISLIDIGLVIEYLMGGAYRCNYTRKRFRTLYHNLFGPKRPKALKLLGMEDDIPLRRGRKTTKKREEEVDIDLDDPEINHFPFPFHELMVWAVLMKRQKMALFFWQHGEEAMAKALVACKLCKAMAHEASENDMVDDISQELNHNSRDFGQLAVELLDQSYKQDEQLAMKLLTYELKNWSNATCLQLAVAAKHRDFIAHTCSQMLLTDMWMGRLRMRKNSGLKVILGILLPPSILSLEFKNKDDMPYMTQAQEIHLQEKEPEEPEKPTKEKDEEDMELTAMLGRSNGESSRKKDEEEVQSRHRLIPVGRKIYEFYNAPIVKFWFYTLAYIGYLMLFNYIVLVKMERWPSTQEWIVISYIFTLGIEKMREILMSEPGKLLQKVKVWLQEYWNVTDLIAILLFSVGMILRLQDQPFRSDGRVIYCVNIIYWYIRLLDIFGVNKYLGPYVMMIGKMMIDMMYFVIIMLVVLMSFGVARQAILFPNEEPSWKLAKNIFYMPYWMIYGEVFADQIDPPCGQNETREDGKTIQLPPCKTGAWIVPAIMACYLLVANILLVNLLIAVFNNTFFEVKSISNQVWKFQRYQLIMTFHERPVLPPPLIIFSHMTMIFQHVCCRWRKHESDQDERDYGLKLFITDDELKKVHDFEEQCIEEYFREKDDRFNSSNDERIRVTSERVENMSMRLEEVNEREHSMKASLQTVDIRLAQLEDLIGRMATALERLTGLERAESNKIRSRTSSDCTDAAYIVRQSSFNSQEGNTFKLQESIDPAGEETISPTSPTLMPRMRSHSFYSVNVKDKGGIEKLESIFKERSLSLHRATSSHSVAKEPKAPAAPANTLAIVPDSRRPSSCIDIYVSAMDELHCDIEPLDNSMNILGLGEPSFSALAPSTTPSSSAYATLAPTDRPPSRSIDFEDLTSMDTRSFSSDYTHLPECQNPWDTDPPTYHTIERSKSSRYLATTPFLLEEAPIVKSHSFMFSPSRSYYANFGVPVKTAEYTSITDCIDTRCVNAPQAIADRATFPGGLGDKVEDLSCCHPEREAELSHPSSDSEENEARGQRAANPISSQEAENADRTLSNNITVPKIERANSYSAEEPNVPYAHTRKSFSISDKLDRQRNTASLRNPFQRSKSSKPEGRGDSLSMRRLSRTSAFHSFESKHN
Type: cell-based
Experimental: In order to monitor the inhibition of the mouse TRPM3α2 (mTRPM3) ion channel by the compounds of the invention, a cellular system making use of an mTRPM3alpha2 or hTRPM3 overexpressing cell line (flip-in HEK293) was used. The TRPM3 channel was stimulated/opened with Pregnenolone sulfate (PS) (50 μM) which results in Ca^2+ influx.
For mTRPM3, the intracellular Ca^2+ was measured with a Calcium responsive dye, Fluor-4 AMV ester (Invitrogen). Cells were cultured until a confluence of 80-90%, washed with Versene (Invitrogen) and detached from the surface by a short incubation with 0.05% Trypsin (Invitrogen). The trypsination process was stopped by the addition of complete cell culture medium (DMEM, glutamax, 10% FCS, NEAA, Pen-Strep). Cells were collected and resuspended in Krebs buffer without Calcium at RT.
Prior the cell seeding (±2000 cells/well into a black, 384 well plate (Greiner)) the diluted compound was added in the assay plate, together with the PS dissolved in Krebs buffer containing Calcium. […] Directly after cell addition the plates were read on an Envision fluorescence reader (Perkin Elmer) by an Excitation of 485 nm and emission at 535 nm.
Channel inhibition was calculated compared to a non-PS stimulated control versus a condition stimulated with PS (50 μM) with vehicle. The ability of the compounds of the invention to inhibit this activity was determined as: Percentage inhibition=[1-((RFU determined for sample with test compound present−RFU determined for sample with positive control inhibitor) divided by (RFU determined in the presence of vehicle−RFU determined for sample with positive control inhibitor))]*100.
The activities of the Example compounds tested are depicted in the table below. The activity ranges A, B and C refer to IC50 values in the Fluo-4 AM assay as follows: “A”: IC50<1 μM; “B”: 1 μM≤IC50≤20 μM and “C”: IC50>20 μM

First: Cc1ncsc1CCOc1cc2c(C(=O)NC3CNCC3(F)F)c(C)oc2cn1 (stereo not shown) [Cpd 023-En1, N-(4,4-difluoropyrrolidin-3-yl)-2-methyl-5-[2-(4-methyl-1,3-thiazol-5-yl)ethoxy]furo[2,3-c]pyridine-3-carboxamide]
Second: Cc1ncsc1COc1cc2c(C(=O)NC3(CO)CC3)c(C)oc2cn1 [Cpd 030, N-[1-(hydroxymethyl)cyclopropyl]-2-methyl-5-[(4-methyl-1,3-thiazol-5-yl)methoxy]furo[2,3-c]pyridine-3-carboxamide]
The IC50 of the first is lower: 1 to 20 µM for the first, greater than 20 µM for the second.

First: Cc1oc2cnc(OCc3ccccn3)cc2c1C(=O)NC1(C(N)=O)CCOCC1 [Cpd 024, N-(4-carbamoyloxan-4-yl)-2-methyl-5-[(pyridin-2-yl)methoxy]furo[2,3-c]pyridine-3-carboxamide]
Second: Cc1oc2cnc(OCc3ccccn3)cc2c1C(=O)NC1(CO)CC1 [Cpd 031, N-[1-(hydroxymethyl)cyclopropyl]-2-methyl-5-[(pyridin-2-yl)methoxy]furo[2,3-c]pyridine-3-carboxamide]
The IC50 of the first is lower: 1 to 20 µM for the first, greater than 20 µM for the second.

First: Cc1oc2cnc(OCc3cccnc3C(F)(F)F)cc2c1C(=O)N[C@@H]1CCNCC1(F)F [Cpd 025, N-[(4R)-3,3-difluoropiperidin-4-yl]-2-methyl-5-{[2-(trifluoromethyl)pyridin-3-yl]methoxy}furo[2,3-c]pyridine-3-carboxamide]
Second: Cc1oc2cnc(OCc3cccnc3C(F)(F)F)cc2c1C(=O)N[C@H]1CCNCC1(F)F [Cpd 026, N-[(4S)-3,3-difluoropiperidin-4-yl]-2-methyl-5-{[2-(trifluoromethyl)pyridin-3-yl]methoxy}furo[2,3-c]pyridine-3-carboxamide]
The IC50 of the first is lower: less than 1 µM for the first, 1 to 20 µM for the second. The first is the more potent here.

`Cc1oc2cnc(OCc3ccccn3)cc2c1C(=O)NC1CCN(CCO)C1=O` (stereo not shown) [Cpd 027, N-[1-(2-hydroxyethyl)-2-oxopyrrolidin-3-yl]-2-methyl-5-[(pyridin-2-yl)methoxy]furo[2,3-c]pyridine-3-carboxamide] and `Cc1oc2cnc(OCc3ccccn3)cc2c1C(=O)NC1(CO)CCC1` [Cpd 029, N-[1-(hydroxymethyl)cyclobutyl]-2-methyl-5-[(pyridin-2-yl)methoxy]furo[2,3-c]pyridine-3-carboxamide] fall in the same range of IC50: 1 to 20 µM for the first, 1 to 20 µM for the second.

`Cc1ncsc1COc1cc2c(C(=O)NC3(CO)CCC3)c(C)oc2cn1` [Cpd 028, N-[1-(hydroxymethyl)cyclobutyl]-2-methyl-5-[(4-methyl-1,3-thiazol-5-yl)methoxy]furo[2,3-c]pyridine-3-carboxamide] and `Cc1ncsc1COc1cc2c(C(=O)NC3(CO)CCOCC3)c(C)oc2cn1` [Cpd 035, N-[4-(hydroxymethyl)oxan-4-yl]-2-methyl-5-[(4-methyl-1,3-thiazol-5-yl)methoxy]furo[2,3-c]pyridine-3-carboxamide] fall in the same range of IC50: 1 to 20 µM for the first, 1 to 20 µM for the second.

`COc1ncccc1COc1cc2c(C(=O)NC3(CO)CC3)c(C)oc2cn1` [Cpd 032, N-[1-(hydroxymethyl)cyclopropyl]-5-[(2-methoxypyridin-3-yl)methoxy]-2-methylfuro[2,3-c]pyridine-3-carboxamide] and `Cc1oc2cnc(OCc3ccccn3)cc2c1C(=O)NC1(CO)COC1` [Cpd 034, N-[3-(hydroxymethyl)oxetan-3-yl]-2-methyl-5-[(pyridin-2-yl)methoxy]furo[2,3-c]pyridine-3-carboxamide] cannot be ordered by IC50: greater than 20 µM for the first, greater than 20 µM for the second.

`Cc1ncsc1COc1cc2c(C(=O)NC3(CO)COC3)c(C)oc2cn1` [Cpd 033, N-[3-(hydroxymethyl)oxetan-3-yl]-2-methyl-5-[(4-methyl-1,3-thiazol-5-yl)methoxy]furo[2,3-c]pyridine-3-carboxamide] was tested, and the IC50 was 1 to 20 µM.
